Experimental data published in patent US8623613B2, “Method to detect endothelial cell massive calcium accumulation death” (priority 2010, dated 2014).

Tested on: Human umbilical vein endothelial cells
Test: HUVEC culture 72 hours, fast green staining, image analysis count of NSD and MCAD cells
Conditions: for number of cells per field exhibiting MCAD: vehicle alone approximately 10; for number of cells showing non-specific cell death (NSD): vehicle alone approximately 125
Procedure: After 72 hours, the cells were stained with fast green and sedimented on microscope slides with a Cytospin™ centrifuge. Endothelial cells with non-specific death (NSD) stain pale blue green and endothelial cells with specific, massive-calcium accumulation death (MCAD) stain densely refractile hyperchromatic blue-black. The number of each type of cell was quantified using image analysis software.

Molecule: COc1cccc2c1C(=O)c1c(O)c3c(c(O)c1C2=O)C[C@@](O)(C(=O)CO)C[C@@H]3O[C@H]1C[C@H](N)[C@H](O)[C@H](C)O1 [doxorubicin]
- number of cells per field exhibiting MCAD: 4 cells per field
- number of cells showing non-specific cell death (NSD): 160 cells per field

Molecule: bevacizumab [Avastin ®]
- number of cells per field exhibiting MCAD: 35 cells per field
- number of cells showing non-specific cell death (NSD): about 100 cells per field
